# From patent US20110212053A1, “PHOSPHATIDYLINOSITOL 3 KINASE INHIBITORS” (priority 2008, published 2011)
# Assays:
# U-87 MG cells = experiment: CellTiter-GLO cell proliferation assay, U-87 MG; type: cell-based; conditions: Homo sapiens, preliminary experiments, no unit printed with the values (paragraph speaks of nM), read-out: mean concentration for 50% inhibition of U-87 MG cell proliferation
# Description: Compound Preparation: Cell-based assays: 1000× stocks of inhibitors were prepared in DMSO. A 10 mM master stock was prepared and all other stocks were generated by serial dilution of the master stock in DMSO. The final concentration of DMSO in cell-based assays was 0.1% (v/v).
# CellTiter-GLO® Cell Proliferation Assay: CellTiter-GLO® (Promega) quantifies cell number as a measure of the ATP in a cell culture. 1,000-10,000 human tumor cells (of multiple histotypes) were plated in 100 μL of growth medium (10% (v/v) FBS in DMEM) in white, collagen coated 96-well plates (Biocoat) and allowed to adhere overnight at 37° C. in a 5% CO2 incubator. All test inhibitors were prepared in DMSO. For EC50 determinations, 1000× inhibitor stocks were prepared from a 10 mM master stock by serial dilution in DMSO and subsequently diluted in fresh growth medium to the desired inhibitor concentration. The growth medium was removed by aspiration and replaced with fresh medium containing inhibitors. […]
# After 72 hours, the plates were removed from the incubator and equilibrated to room temperature for 30 minutes. […] Plates were incubated in the dark for 10 minutes at room temperature before reading luminescence on a SpectraMax M5 luminometer. Results are expressed as % inhibition relative to control cells (DMSO only). EC50 values were calculated via non-linear regression using GraphPad Prism data analysis software.
# TRKC = TRKC (Homo sapiens, UniProt Q16288); experiment: Radiometric HotSpot kinase assay, TRKC; type: biochemical; conditions: 1 μM compound, 10 μM ATP
# Chain of TRKC (Q16288 32-839): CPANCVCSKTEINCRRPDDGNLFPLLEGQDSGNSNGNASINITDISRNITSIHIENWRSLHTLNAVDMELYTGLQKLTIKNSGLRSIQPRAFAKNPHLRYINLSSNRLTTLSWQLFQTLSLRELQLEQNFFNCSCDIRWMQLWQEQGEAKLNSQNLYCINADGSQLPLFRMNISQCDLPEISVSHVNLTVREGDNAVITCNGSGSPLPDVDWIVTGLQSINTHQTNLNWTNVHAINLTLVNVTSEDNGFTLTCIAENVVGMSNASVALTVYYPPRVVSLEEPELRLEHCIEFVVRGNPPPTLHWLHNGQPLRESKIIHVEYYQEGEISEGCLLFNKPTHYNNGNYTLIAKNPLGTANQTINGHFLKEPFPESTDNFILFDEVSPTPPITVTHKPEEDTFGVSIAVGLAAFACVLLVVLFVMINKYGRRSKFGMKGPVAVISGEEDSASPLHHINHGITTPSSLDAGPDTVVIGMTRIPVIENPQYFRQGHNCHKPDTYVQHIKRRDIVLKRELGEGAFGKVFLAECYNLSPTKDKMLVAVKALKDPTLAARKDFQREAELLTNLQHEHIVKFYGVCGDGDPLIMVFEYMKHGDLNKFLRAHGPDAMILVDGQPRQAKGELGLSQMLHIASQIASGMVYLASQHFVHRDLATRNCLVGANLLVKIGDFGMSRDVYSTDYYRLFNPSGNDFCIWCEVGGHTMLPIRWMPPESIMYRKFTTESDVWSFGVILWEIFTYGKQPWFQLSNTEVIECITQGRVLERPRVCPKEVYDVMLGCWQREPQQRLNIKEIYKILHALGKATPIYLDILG
# Description: (§1) Kinase Profiling: The inhibitory activity of the PI3K inhibitor compounds of the invention against 250 protein kinases was determined via the radiometric HotSpot Kinase Profiling (Reaction Biology Corporation, Malvern, Pa.). Compounds were profiled at a final concentration of 1 μM compound against recombinant protein kinases in the presence of 10 μM ATP and data were expressed as percent inhibition. IC50 and/or percent inhibition at 1 μM compound values were determined for select compounds against a subset of kinases (MELK, MNK1, MNK2, mTOR, PIM-1. TRKC, and PDGFRα(D842V)).
# (§2) Compounds of the invention were assayed against the select kinases using the KinaseGLO assay (MELK) or the radiometric assay (PIM, TRKC, PDGFRα(D842V), MNK1 and mTOR). IC50 values were determined using 8-10 point half-log dose dilutions and calculated via nonlinear regression analysis using Graphpad Prism data analysis software.
# PIM-1 = PIM-1 (Homo sapiens, UniProt P11309); experiment: Radiometric HotSpot kinase assay, PIM-1; type: biochemical; conditions: 1 μM compound, 10 μM ATP
# Chain of PIM-1 (P11309 whole entry): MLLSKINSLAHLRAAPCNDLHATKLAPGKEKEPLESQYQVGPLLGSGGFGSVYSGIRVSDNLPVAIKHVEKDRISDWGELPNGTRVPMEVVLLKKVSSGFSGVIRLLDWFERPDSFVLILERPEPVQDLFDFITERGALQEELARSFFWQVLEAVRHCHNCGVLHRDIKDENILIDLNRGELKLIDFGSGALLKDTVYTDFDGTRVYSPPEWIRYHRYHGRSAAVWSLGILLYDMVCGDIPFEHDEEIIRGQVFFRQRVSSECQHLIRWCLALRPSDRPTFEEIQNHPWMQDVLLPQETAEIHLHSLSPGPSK
# Description: as §1, §2
# PDGFRα(D842V) = PDGFRα(D842V) (Homo sapiens, UniProt P16234, D842V); experiment: Radiometric HotSpot kinase assay, PDGFRα(D842V); type: biochemical
# Chain of PDGFRα(D842V) (P16234 24-1089 D842V): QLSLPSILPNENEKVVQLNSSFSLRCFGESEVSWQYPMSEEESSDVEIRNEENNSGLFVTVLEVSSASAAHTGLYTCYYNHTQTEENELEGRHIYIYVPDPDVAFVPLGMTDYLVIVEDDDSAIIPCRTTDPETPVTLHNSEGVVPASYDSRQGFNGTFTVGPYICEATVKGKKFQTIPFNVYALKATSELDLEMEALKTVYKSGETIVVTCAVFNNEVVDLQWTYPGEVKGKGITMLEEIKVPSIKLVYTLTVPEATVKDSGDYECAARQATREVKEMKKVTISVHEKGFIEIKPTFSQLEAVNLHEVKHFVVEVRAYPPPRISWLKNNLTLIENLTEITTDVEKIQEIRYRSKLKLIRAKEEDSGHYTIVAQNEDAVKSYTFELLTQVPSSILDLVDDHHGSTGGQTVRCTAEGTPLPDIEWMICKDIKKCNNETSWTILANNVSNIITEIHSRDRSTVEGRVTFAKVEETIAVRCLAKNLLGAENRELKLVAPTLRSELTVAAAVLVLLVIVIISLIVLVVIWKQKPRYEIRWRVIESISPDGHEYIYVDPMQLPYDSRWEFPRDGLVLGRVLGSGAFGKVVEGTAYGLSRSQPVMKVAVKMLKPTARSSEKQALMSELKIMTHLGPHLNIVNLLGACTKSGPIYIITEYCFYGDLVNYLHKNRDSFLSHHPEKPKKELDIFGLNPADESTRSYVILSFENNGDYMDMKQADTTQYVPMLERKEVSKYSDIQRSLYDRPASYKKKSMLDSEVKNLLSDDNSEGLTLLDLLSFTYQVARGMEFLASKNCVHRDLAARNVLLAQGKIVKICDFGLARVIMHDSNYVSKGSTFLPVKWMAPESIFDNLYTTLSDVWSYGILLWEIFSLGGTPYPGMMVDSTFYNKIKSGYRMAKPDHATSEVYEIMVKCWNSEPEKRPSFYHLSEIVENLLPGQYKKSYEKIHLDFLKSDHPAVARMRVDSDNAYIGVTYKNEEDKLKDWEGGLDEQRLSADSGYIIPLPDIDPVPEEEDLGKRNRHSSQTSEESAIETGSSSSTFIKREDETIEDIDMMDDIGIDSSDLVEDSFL
# Description: as §1, §2
SMILES,IC50 (U-87 MG cells),inhibition at 1 µM (TRKC),inhibition at 1 µM (PIM-1),IC50 (PDGFRα(D842V))
"CC(C)(C#N)c1ccc(-c2n[nH]c3cnc4ccc(-c5cnc6ccccc6c5)cc4c23)cc1 [Compound 1078, 2-methyl-2-(4-(8-(quinolin-3-yl)-3H-pyrazolo[3,4-c]quinolin-1-yl)phenyl)propanenitrile]",295 nM,,,
"CC(C)(C#N)c1ccc(-c2n[nH]c3cnc4ccc(-c5cccnc5)cc4c23)cc1 [Compound 1107, 2-methyl-2-(4-(8-(pyridin-3-yl)-3H-pyrazolo[3,4-c]quinolin-1-yl)phenyl)propanenitrile]",470 nM,> 97%,85 to 95%,
"CC(C)(C#N)c1ccc(-c2n[nH]c3cnc4ccc(-c5ccc6ncccc6c5)cc4c23)cc1 [Compound 1110, 2-methyl-2-(4-(8-(quinolin-6-yl)-3H-pyrazolo[3,4-c]quinolin-1-yl)phenyl)propanenitrile]",,> 80%,60 to 85%,> 100 nM
